9 compounds from patent US8410302B2, “Methoxyimino compounds and fungicide composition comprising same” (Kyung Nong Corporation, priority 2007, dated 2013) can be followed below.

Assay [1] concerns Rhizoctonia solani AG-1. In words: Fungicidal activity against rice sheath blight (RSB) disease, control value. As to conditions: for pest or weed control at 100 ppm / pest or weed control at 2 ppm / pest or weed control at 10 ppm / pest or weed control at 50 ppm: Rhizoctonia solani, AG1, in Oryza sativa, read-out: RSB control value (C.V.); for RSB control value (C.V.): 100 ppm, rice sheath blight.

Assay [2] deals with Pyricularia oryzae Carvara KA301. In words: whole plant or invertebrate. Format: in vivo. Conditions: for pest or weed control at 50 ppm / pest or weed control at 100 ppm / pest or weed control at 2 ppm / pest or weed control at 10 ppm: Pyricularia oryzae, read-out: RCB control value (C.V.); for RCB control value (C.V.): rice blast.
For assay [3], the system named is Erysiphae graminis. In words: Fungicidal activity against barley powdery mildew (BPM) disease, control value. Format: in vivo. As to conditions: barley powdery mildew; for pest or weed control at 50 ppm / pest or weed control at 100 ppm / pest or weed control at 2 ppm / pest or weed control at 10 ppm: Hordeum vulgare, 168 h, read-out: BPM control value (C.V.).
In assay [4] the test system is Phytophthora infestans. In words: whole plant or invertebrate. In kind it is in vivo. As to conditions: for pest or weed control at 100 ppm / pest or weed control at 10 ppm / pest or weed control at 50 ppm / pest or weed control at 2 ppm: Phytophthora infestans, in Solanum lycopersicum, read-out: TLB control value (C.V.); for TLB control value (C.V.): tomato late blight.

The test system of assay [5] is Puccinia recondita. In words: Fungicidal activity against wheat leaf rust (WLR) disease, control value. As to conditions: wheat leaf rust; for pest or weed control at 10 ppm / pest or weed control at 50 ppm / pest or weed control at 100 ppm / pest or weed control at 2 ppm: read-out: WLR control value (C.V.). In kind it is in vivo.
Assay [6] relates to Botrytis cinerae. In words: Fungicidal activity against cucumber gray mold rot (CGM) disease, control value. Format: in vivo. Conditions: 100 ppm, cucumber gray mold rot; for pest or weed control at 100 ppm: Botrytis, read-out: CGM control value (C.V.). The procedure:
Botrytis cinerae, which was isolated from cucumber infected thereby, was inoculated on a potato agar medium (PEC) and cultured under a 12L/12D cycle at 25° C. for 15 days to form spore. The spores were scraped, filtered through a gauze and then suspended in Potato Dextrose broth at a concentration of 1×10^6 spore/ml. The spore suspension was sprayed on a cucumber plant having one leaf. The cucumber plant was held in a humidified room at 20° C. for 3 days. L.A. on a leaf was measured to calculate a C.V.

For the compound `CO/N=C(/C(=O)OC)c1ccccc1COc1cccc(C=C(F)Cl)c1` [Example 11, methyl-(2E)-2-(2-((3-(2-chloro-2-fluorovinyl)phenoxy)methyl)phenyl)-2-methoxyiminoacetate], the pest or weed control at 100 ppm in assay [1] stood at 30%; in assay [2] it was 95%; in assay [3] (100 ppm), 90%; in assay [4] it was 60%; in assay [5] (100 ppm) it was 100%; in assay [6] it was 43%. The pest or weed control at 50 ppm is 70% in assay [2], 60% in assay [3] (50 ppm) and 90% in assay [5] (50 ppm). The pest or weed control at 10 ppm in assay [5] (10 ppm) was 40%.
Consider `CNC(=O)/C(=N/OC)c1ccccc1COc1cccc(C=C(F)Cl)c1` [Example 12, (2E)-2-(2-((3-(2-chloro-2-difluorovinyl)phenoxy)methyl)phenyl)-2-methoxyimino-N-methylacetamide], for which the “RSB control value (C.V.)” value in assay [1] worked out at 15%. Besides, the “RCB control value (C.V.)” value in assay [2] (50 ppm) is on record as 90%; in assay [2] (100 ppm), 97%. For the same compound, the “BPM control value (C.V.)” value in assay [3] (100 ppm) is 80%. The “TLB control value (C.V.)” value in assay [4] (50 ppm) is 55%; in assay [4] (100 ppm), 93%. Further, the “WLR control value (C.V.)” value in assay [5] (100 ppm) is 82%. In addition, the “CGM control value (C.V.)” value in assay [6] worked out at 40%.
`CO/N=C(/C(=O)OC)c1ccccc1COc1ccc(C=C(F)Cl)cc1` [Example 13, methyl-(2E)-2-(2-((4-(2-chloro-2-fluorovinyl)phenoxy)methyl)phenyl)-2-methoxyiminoacetate]: the pest or weed control at 100 ppm in assay [1] amounted to 67%; in assay [2], 95%; in assay [3] (100 ppm), 75%; in assay [4], 60%; in assay [5] (100 ppm) it was 90%; in assay [6], 0%. Besides, the results for the pest or weed control at 50 ppm in assay [2] and in assay [5] (50 ppm) were 70% and 40%, respectively.
As to `CNC(=O)/C(=N/OC)c1ccccc1COc1ccc(C=C(F)Cl)cc1` [Example 14, (2E)-2-(2-((4-(2-chloro-2-difluorovinyl)phenoxy)methyl)phenyl)-2-methoxyimino-N-methylacetamide], the “RSB control value (C.V.)” value in assay [1] was found to be 15%. Besides, the “RCB control value (C.V.)” value is recorded as 90% in assay [2] (50 ppm) and 95% in assay [2] (100 ppm). In addition, the “BPM control value (C.V.)” value in assay [3] (100 ppm) is listed as 60%. In addition, the “TLB control value (C.V.)” value in assay [4] (50 ppm) came out at 35%; in assay [4] (100 ppm) it was 98%. Further, the “WLR control value (C.V.)” value in assay [5] (100 ppm) is recorded as 72%. Moreover, in assay [6], the “CGM control value (C.V.)” value is on record as 40%.
`CO/N=C(/C(=O)OC)c1ccccc1COc1cccc(C=C(Cl)Br)c1` [Example 15, methyl-(2E)-2-(2-((3-(2-bromo-2-chlorovinyl)phenoxy)methyl)phenyl)-2-methoxyiminoacetate]: the pest or weed control at 100 ppm in assay [1] was determined as 10%; in assay [2], 100%; in assay [3] (100 ppm), 95%; in assay [4], 100%; in assay [5] (100 ppm), 100%; in assay [6], 50%. In addition, the pest or weed control at 2 ppm worked out at 70% in assay [2], 15% in assay [3] (2 ppm) and 100% in assay [5] (2 ppm). For the same compound, the pest or weed control at 10 ppm in assay [2] is 100%; in assay [3] (10 ppm) it was 60%; in assay [4], 10%; in assay [5] (10 ppm), 100%. Besides, the pest or weed control at 50 ppm came out at 100% in assay [2], 93% in assay [3] (50 ppm), 90% in assay [4] and 100% in assay [5] (50 ppm).
Consider `CNC(=O)/C(=N/OC)c1ccccc1COc1cccc(C=C(Cl)Br)c1` [Example 16, (2E)-2-(2-((3-(2-bromo-2-chlorovinyl)phenoxy)methyl)phenyl)-2-methoxyimino-N-methylacetamide], for which the pest or weed control at 2 ppm in assay [1] stood at 95%; in assay [2], 100%; in assay [3] (2 ppm), 100%; in assay [4], 93%; in assay [5] (2 ppm) it was 100%. Moreover, the pest or weed control at 10 ppm in assay [1] worked out at 98%; in assay [2], 100%; in assay [3] (10 ppm), 100%; in assay [4] it was 95%; in assay [5] (10 ppm), 100%. Further, the pest or weed control at 50 ppm in assay [1], in assay [2], in assay [3] (50 ppm), in assay [4] and in assay [5] (50 ppm) was 100% in each case. Moreover, the pest or weed control at 100 ppm in assay [1] came to 100%; in assay [2], 100%; in assay [3] (100 ppm) it was 100%; in assay [4], 100%; in assay [5] (100 ppm) it was 100%; in assay [6], 65%.
In the case of `CO/N=C(/C(=O)OC)c1ccccc1COc1ccc(C=C(Cl)Br)cc1` [Example 17, methyl-(2E)-2-(2-((4-(2-bromo-2-chlorovinyl)phenoxy)methyl)phenyl)-2-methoxyiminoacetate], the pest or weed control at 100 ppm came out at 90% in assay [1]; 100% in assay [2]; 95% in assay [3] (100 ppm); 100% in assay [4]; 100% in assay [5] (100 ppm); 50% in assay [6]. In addition, the pest or weed control at 2 ppm came out at 70% in assay [2], 35% in assay [3] (2 ppm) and 100% in assay [5] (2 ppm). Besides, the pest or weed control at 10 ppm was 100% in assay [2], 90% in assay [3] (10 ppm), 10% in assay [4] and 100% in assay [5] (10 ppm). Moreover, the pest or weed control at 50 ppm was 100% in assay [2], 93% in assay [3] (50 ppm), 90% in assay [4] and 100% in assay [5] (50 ppm).
With `CNC(=O)/C(=N/OC)c1ccccc1COc1ccc(C=C(Cl)Br)cc1` [Example 18, (2E)-2-(2-((4-(2-bromo-2-chlorovinyl)phenoxy)methyl)phenyl)-2-methoxyimino-N-methylacetamide], the pest or weed control at 2 ppm in assay [1] was determined as 90%; in assay [2], 100%; in assay [3] (2 ppm), 95%; in assay [4] it was 30%; in assay [5] (2 ppm), 100%. Besides, the pest or weed control at 10 ppm in assay [1] came to 98%; in assay [2], 100%; in assay [3] (10 ppm) it was 98%; in assay [4], 80%; in assay [5] (10 ppm) it was 100%. The pest or weed control at 50 ppm in assay [1], in assay [2], in assay [3] (50 ppm), in assay [4] and in assay [5] (50 ppm) was 100% each time. In addition, the pest or weed control at 100 ppm in assay [1] is 100%; in assay [2] it was 100%; in assay [3] (100 ppm), 100%; in assay [4], 100%; in assay [5] (100 ppm), 100%; in assay [6], 45%.
For the compound `CO/N=C(/C(=O)OC)c1ccccc1CON=C(C)c1cccc(C=C(Cl)Cl)c1` [Example 19, methyl-(E)-2-[[[[[2-[3-(2,2-dichlorovinyl)phenyl](1-methyl)methylidene]amino]oxy]methyl]phenyl]-2-methoxyiminoacetate], the “RSB control value (C.V.)” value in assay [1] is 80%. The “RCB control value (C.V.)” value in assay [2] (2 ppm) is given as 98%; in assay [2] (10 ppm) it was 100%; in assay [2] (50 ppm) it was 100%; in assay [2] (100 ppm), 100%. Besides, the “BPM control value (C.V.)” value in assay [3] (2 ppm), in assay [3] (10 ppm), in assay [3] (50 ppm) and in assay [3] (100 ppm) was 100% throughout. The “TLB control value (C.V.)” value is reported as 80% in assay [4] (2 ppm), 92% in assay [4] (10 ppm), 100% in assay [4] (50 ppm) and 100% in assay [4] (100 ppm). Also, the “WLR control value (C.V.)” value in assay [5] (2 ppm) came to 98%; in assay [5] (10 ppm), 100%; in assay [5] (50 ppm), 100%; in assay [5] (100 ppm), 100%. Besides, the “CGM control value (C.V.)” value in assay [6] is given as 59%.
